US9110082B2, “Methods for the identification and treatment of patients sensitive to anti IGF-1R inhibition therapy” (MERCK SHARP & DOHME CORP., priority 2009, dated 2015)

Legend:
[1] = test system: 22 NSCLC cell lines; details: growth inhibition assay; cited from earlier work
[2] = test system: NSCLC cell lines; assay: Anchorage independent growth (soft agar colony formation) assay in a panel of NSCLC cell lines; type: cell-based, human
Procedure: (§1) All NSCLC cell lines were obtained from ATCC and maintained in 10% fetal bovine serum, FBS (Hyclone) containing media (DMEM or RPMI; Invitrogen Inc) supplemented with pen-strep (Invitrogen) at 37° C. according to the instructions from ATCC.
Soft agar assays were conducted in 96 well glass bottom plates (MATRICAL). Cells were seeded at a concentration of 3,000-9,000 cells per WELL in 100 μl RPMI 1640 (INVITROGEN) supplemented with 14% FBS and 0.3% (w/v) […] Agarose (Lonza Rockland, Inc) on top of a bottom layer of consisting of the same culture media supplemented with 0.8% agarose. […] Cells were incubated for 7-14 days before staining overnight with LAVA CELL(Active Motif). Colonies were quantified using an ISOCYTE laser scanning cytometer.

[3] = test system: Colo699 cell line; assay: Anchorage independent growth (soft agar) assay, Colo699; type: cell-based, human; details: LKB1-high cell line; IGF-1 over-expression
Procedure: as §1
Soft agar assays were conducted in 96 well glass bottom plates (MATRICAL). Cells were seeded at a concentration of 3,000-9,000 cells per WELL in 100 μl RPMI 1640 (INVITROGEN) supplemented with 14% FBS and 0.3% (w/v) […] Agarose (Lonza Rockland, Inc) on top of a bottom layer of consisting of the same culture media supplemented with 0.8% agarose. Compounds were added in 100μl of culture media supplemented after agarose had solidified. Cells were incubated for 7-14 days before staining overnight with LAVA CELL(Active Motif). Colonies were quantified using an ISOCYTE laser scanning cytometer.

[4] = test system: NSCLC cell lines expressing high levels of IGF-1R (NCI-H2122, A549, NCI-H460); assay: Xenograft growth assessment, NSCLC models with high IGF-1R; type: in vivo, nu/nu mice; details: NCI-H2122, A549, NCI-H460 xenografts; as compared to erlotinib
Procedure: (§2) When tumors reached a size of ˜300 mm3 (Length*Width*Width*0.5), mice were randomized into treatment groups. […] Tumor weight was determined at termination. […] Mice were sacrificed 24 hr after the final dose.

[5] = test system: xenograft models with low levels of IGF-1R expression (SKMES & NCI-H520); assay: Xenograft growth assessment, NSCLC models with low IGF-1R; type: in vivo, nu/nu mice; details: SKMES & NCI-H520 xenografts
Procedure: as §2

| Substance | sensitivity of NSCLC cell lines to R1507 [1] | sensitivity (anchorage independent growth inhibition) of NSCLC cell lines expressing high levels of IGF-1R ([2]; 26 NSCLC cell lines, MK-0646 10 ug/ml, erlotinib 1 uM, IGF-1R high cell lines) | sensitivity in IGF-1R high cell lines expressing low levels of LKB1 ([2]; IGF-1R and LKB1 protein by RPPA) | MK-0646 sensitivity in LKB1-low cell lines ([2]; LKB1 protein not detectable by western blot (LKB1-low; n=11)) | sensitivity of Colo699 cell line [3] | xenograft sensitivity [4] | xenograft sensitivity [5] |
| --- | --- | --- | --- | --- | --- | --- | --- |
| R1507: fully human IgG1 monoclonal antibody directed against the extracellular portion of the human IGF-1R | none of the lines displayed “high sensitivity” |  |  |  |  |  |  |
| MK-0646: humanized antibody characterized as binding IGF-1R as well as the IR/IGF-1 hybrid receptor; described in U.S. Pat. No. 7,241,444 |  | more sensitive | enriched | significantly enriched | very sensitive | significant sensitivity | did not show sensitivity |
